Data on 18 compounds can be found in patent US20040142993A1, “Inhibitors of HCV NS5B polymerase” (priority 2002, published 2004).

Structures can show the parent of a compound that is named as a salt. Where only a bound is given, the exact number is not on record here.

Sequence of HCV NS5b RNA dependent RNA polymerase (P27958 2421-3011): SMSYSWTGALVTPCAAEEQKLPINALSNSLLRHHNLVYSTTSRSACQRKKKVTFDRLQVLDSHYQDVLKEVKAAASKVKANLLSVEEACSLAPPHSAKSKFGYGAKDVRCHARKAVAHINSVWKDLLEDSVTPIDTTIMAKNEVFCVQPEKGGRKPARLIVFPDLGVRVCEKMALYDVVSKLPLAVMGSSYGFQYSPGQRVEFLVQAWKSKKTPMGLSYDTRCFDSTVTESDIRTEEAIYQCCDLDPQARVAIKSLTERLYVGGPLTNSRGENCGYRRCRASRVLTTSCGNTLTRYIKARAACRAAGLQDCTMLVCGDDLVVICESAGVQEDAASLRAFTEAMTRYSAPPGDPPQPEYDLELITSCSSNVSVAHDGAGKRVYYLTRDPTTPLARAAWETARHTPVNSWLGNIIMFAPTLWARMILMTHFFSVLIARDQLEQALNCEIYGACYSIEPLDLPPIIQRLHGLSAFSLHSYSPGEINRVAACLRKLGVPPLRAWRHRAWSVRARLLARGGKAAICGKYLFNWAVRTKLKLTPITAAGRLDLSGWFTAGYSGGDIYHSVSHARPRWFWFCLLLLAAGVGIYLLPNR

This assay concerns the target HCV NS5b RNA dependent RNA polymerase (Hepatitis C virus genotype 1a, UniProt P27958). The experiment in a line: Inhibition of HCV NS5b RNA dependent RNA polymerase activity (incorporation of 3H labeled GTP, scintillation proximity). Format: biochemical. The note with it: HCV NS5b polymerase assay; read-out: concentration for 50% inhibition (inhibitory activity, Table 2). The procedure: Compounds of the present invention are evaluated for inhibition of HCV NS5b RNA dependent RNA polymerase activity in assays comprised of a suitable buffer (e.g. 20 mM Tris-HCl pH 7.6), primed or unprimed RNA templates, GTP, ATP, CTP, and UTP, MnCl2 or MgCl2, and reducing agent such as 10 mM dithiothreitol or 2-mercaptoethanol. The assay buffer may contain salts such as ammonium acetate, KCl, or NaCl, and nonionic or zwitterionic detergents such as Tween or CHAPS. The incorporation of nucleotides into the complementary RNA strand may be monitored by the incorporation of radiolabeled NTP (e.g. ^3H labeled GTP). Suitable RNA templates for de novo initiation in the presence of 20-50 μM GTP or ATP are the homopolymers poly rC and poly rU, respectively. Heteropolymer RNA templates with 1-3 cytidine (C) bases or 1-3 uridine (U) bases at the 3′ terminus of the template may also be used for de novo initiation. Primed RNA templates such as poly rC primed with oligo rG or oligo dG, and poly rA primed with oligo rU may also be used to detect polymerase activity. The primers may be any length greater than 10 bases. A biotin residue may be added to the 5′ end of the template or the 5′ end of the primer to capture the template and the newly synthesized, complementary strand on avidin coated spheres. One embodiment of this technology consists of a mixture of NS5b polymerase, a poly rC RNA template primed with 5′ biotinylated oligo rG, 20 mM Tris HCl pH 7.6, 100 mM ammonium acetate, 10 mM dithiothreitol, 2 mM CHAPS, 1 mM MgCl2, and 150-200 nM ^3H labeled GTP. Test compounds (inhibitors) may be incorporated in the reaction mixture with up to 10% DMSO. The reaction is run for various times (1-180 minutes) at 22-37° C., and stopped by the addition of 10-140 mM EDTA. Scintillation Proximity Assay avidin-coated beads (Amersham Pharmacia Biotech) are added to capture the ds RNA product; or the reaction mixtures may be transferred to avidin coated Flash Plates (Perkin Elmer Life Sciences). The incorporation of radiolabeled GTP into the complementary strand is measured in 96, 384, or 1536 well plates in scintillation counters such as the Wallac Microbeta and Packard TopCount.
Regarding “5-(aminomethyl)-2-{[2-[(2-carboxyphenyl)thio]-5-(trifluoromethyl)phenyl]amino}benzoic acid [xii]”, the IC50 was 1 to 20 µM.

For `N#Cc1ccc(Nc2ccccc2Nc2ccccc2C(=O)O)c(C(=O)O)c1` [li, 2-({2-[(2-carboxyphenyl)amino]phenyl}amino)-5-cyanobenzoic acid], the IC50 was 1 to 20 µM.

`O=C(O)c1ccccc1Nc1ccc(F)cc1Nc1ccccc1C(=O)O` [lii, 2-({2-[(2-carboxyphenyl)amino]-4-fluorophenyl}amino)benzoic acid]: the IC50 was in the range of 1 to 20 µM.

`O=C(O)c1ccccc1Nc1ccccc1Nc1cc(F)ccc1C(=O)O` [lix, 2-({2-[(2-carboxyphenyl)amino]phenyl}amino)-4-fluorobenzoic acid]: the IC50 is more than 20 µM.

Turning to `c1ccc(Nc2ccccc2-c2nnn[nH]2)c(Nc2ccccc2-c2nnn[nH]2)c1` [lv, N,N′-bis[2-(1H-tetrazol-5-yl)phenyl]benzene-1,2-diamine, disodium salt], the IC50 lay within 1 to 20 µM.

Regarding `O=C(O)c1ccccc1Nc1ccccc1Nc1cc(F)c(F)cc1C(=O)O` [lvii, 2-({2-[(2-carboxyphenyl)amino]phenyl}amino)-4,5-difluorobenzoic acid], the IC50 is 1 to 20 µM.

Turning to `O=C(O)c1ccccc1Nc1ccccc1Nc1ccccc1C(=O)O` [lviii], the IC50 was more than 20 µM.

For `COc1ccc(Nc2ccccc2Nc2ccccc2C(=O)O)c(C(=O)O)c1` [lx, 2-({2-[(2-carboxyphenyl)amino]phenyl}amino)-5-methoxybenzoic acid], the IC50 is more than 20 µM.

With `O=C(O)c1ccccc1Nc1cc(C(F)(F)F)ccc1Oc1ccccc1C(=O)O` [lxv, 2-{[2-(2-carboxyphenoxy)-5-(trifluoromethyl)phenyl]amino}benzoic acid], the IC50 fell in the range of 1 to 20 µM.

With `Cc1ccc(Nc2ccccc2C(=O)O)c(Nc2ccccc2C(=O)O)c1` [xl, 2-({2-[(2-carboxyphenyl)amino]-4-methylphenyl}amino)benzoic acid], the IC50 was 1 to 20 µM.

For the compound `N#Cc1ccc(Nc2ccc(C(F)(F)F)cc2Nc2ccccc2C(=O)O)c(C(=O)O)c1` [xvi, 2-{[2-[(2-carboxyphenyl)amino]-4-(trifluoromethyl)phenyl]amino}-5-cyanobenzoic acid], the IC50 was in the range of 1 to 20 µM.

`N[C@@H](Cc1ccccc1)C(=O)NCc1ccc(Nc2cc(C(F)(F)F)ccc2Nc2ccccc2C(=O)O)c(C(=O)O)c1` [xviii, N-(3-carboxy-4-{[2-[(2-carboxyphenyl)amino]-5-(trifluoromethyl)phenyl]amino}benzyl)-L-phenylalaninamide chloride]: the IC50 is more than 20 µM.

Regarding `NCc1ccc(Nc2ccc(C(F)(F)F)cc2Nc2ccccc2C(=O)O)c(C(=O)O)c1` [xxiv, 5-(aminomethyl)-2-{[2-[(2-carboxyphenyl)amino]-4-(trifluoromethyl)phenyl]amino}benzoic acid hydrochloride], the IC50 is less than 1 µM.

`NCc1ccc(Nc2cc(C(F)(F)F)ccc2Oc2ccccc2C(=O)O)c(C(=O)O)c1` [xxv, 5-(aminomethyl)-2-{[2-(2-carboxyphenoxy)-5-(trifluoromethyl)phenyl]amino}benzoic acid hydrochloride]: the IC50 is more than 20 µM.

In the case of `NCCc1ccc(Nc2ccc(C(F)(F)F)cc2Nc2ccccc2C(=O)O)c(C(=O)O)c1` [xxvii, 5-(2-aminoethyl)-2-{[2-[(2-carboxyphenyl)amino]-4-(trifluoromethyl)phenyl]amino}benzoic acid hydrochloride], the IC50 is less than 1 µM.

Regarding `O=C(O)c1ccccc1Nc1ccc(C(F)(F)F)cc1Nc1ccc(CN2CCCC2)cc1C(=O)O` [xxx, 2-{[2-[(2-carboxyphenyl)amino]-5-(trifluoromethyl)phenyl]amino}-5-(pyrrolidin-1-ylmethyl)benzoic acid], the IC50 is 1 to 20 µM.

On to `O=C(O)c1ccccc1Nc1ccc(C(F)(F)F)cc1Nc1ccccc1C(=O)O` [xxxi, 2-{[2-[(2-carboxyphenyl)amino]-4-(trifluoromethyl)phenyl]amino}benzoic acid], for which the IC50 is less than 1 µM.

On to `NCCc1ccc(Nc2cc(C(F)(F)F)ccc2Nc2ccccc2C(=O)O)c(C(=O)O)c1` [xxxviii, 5-(2-aminoethyl)-2-{[2-[(2-carboxyphenyl)amino]-5-(trifluoromethyl)phenyl]amino}benzoic acid hydrochloride], for which the IC50 was less than 1 µM.
